In patent publication US5312831A, “Urethanes and ureas that induce cytokine production” (American Cyanamid Company, priority 1993, dated 1994):

Legend:
IL-6 = assay: Serum IL-6 production in mice after single s.c. injection (7TD1 bioassay); type: in vivo, mouse; conditions: serum 4 h post injection
Method: Description of Biological Assays Interleukin 6(IL-6) assay for structure function analysis--Test compounds are dissolved in water and administered subcutaneously in 0.2 ml to deliver a dose of 0.1-10 mg/kg. The less soluble compounds are first dissolved in 100% ethanol and then brought to the appropriate concentration in water. Four hours post injection, the mice are bled and the serum is retrieved. The IL-6 dependent cell line 7TDl is used to assay serial dilutions of sera for IL-6 content. 7TDl cells (1×10^4) are placed in microtiter wells and incubated at 37° C. for 72 hours with standard recombinant mouse IL-6 or with dilutions of serum to be tested. Over the last 6 hours, the cells are pulsed with ^3 H-Tdr (μci). Cells are then harvested and the degree of proliferation determined by the uptake of ^3 H-Tdr as measured by liquid scintillation spectrometry. The concentration of IL-6 in serum is calculated from standard curves utilizing recombinant IL-6 from R&D Systems Inc. and are reported in units of IL-6 activity as defined by the manufacturer.

GCSF = assay: Serum GCSF in 5-FU treated monkeys; type: in vivo, cynomolgous monkeys
Method: Groups of 3 cynomolgous monkeys are treated with 5FU at 125 mg/kg and
beginning 24 hours later treated with test compound s.c. at 0.05 mg/kg.
The data reported are from sera taken 4 hours after test compound

CSF = assay: Serum colony stimulating factor (CSF) assay in mice; type: in vivo, mouse; conditions: serum 4 hours after injection
Method: Colony forming assays Granulocyte-Macrophage (CFU-GM)--Mice are treated with 150 mg/kg of 5-Fu and treatment with test compound begins 24 hrs. later. On consecutive days, mice are killed by cervical dislocation and the femurs removed under sterile conditions. Femurs are flushed with 1 ml of ice cold medium (Iscove's supplemented with 20% FCS, 1% penicillin-streptomycin, 1% glutamine and 5×10^-5 M 2-mercaptoethanol). Bone marrow cells (5×10^5) are then plated in 12×75 mm tissue culture plates in 3 ml of warm ararose (3%) in Iscove's medium with 100 Units/ml of recombinant mouse GM-CSF purchased from Genzyme (Boston, Mass.). Plates are incubated for 7 days at 37° C. in 5% CO2. After 7 days, colonies of 50 cells or greater are enumerated under a dissecting microscope.
Bone marrow cells are prepared as described above for the CFU-GM assay. The cells are then incubated in soft agar with an 0.3% final concentration of serum taken from mice 4 hours after injection with test compounds. After 7 days of incubation at 37° C., the number of colony forming (CFU) cells per 10^5 plated bone marrow cells is determined by counting colonies of more than 50 cells under a dissecting microscope. The data are reported as CFU/10^5 bone marrow cells.

**Q.** What does the source list for `CCCCCCC(=O)N[C@@H](C(=O)O)[C@@H](C)OC(=O)N[C@@H](CCC[C@@H](N)C(=O)O)C(=O)N[C@H](C)C(=O)O` [Example 28, [R-(R*,R*)]-N-(R)-6-carboxy-N^2-[[2-carboxy-1-methyl-2-[(1-oxoheptyl)amino]ethoxy]carbonyl]-L-lysyl]-D-Alanine]?
**A.** IL-6 (IL-6; 0.1 mg/kg s.c.): 4802 ± 804 U/ml; IL-6 (IL-6; 1.0 mg/kg s.c.): 3844 ± 482 U/ml; IL-6 (IL-6; 10.0 mg/kg s.c.): 1718 U/ml; Serum GCSF (GCSF; 0.05 mg/kg s.c., 5FU 125 mg/kg, sera 4 hours after treatment, 5-FU only 0): 3962 ± 2178 pg/mL; GCSF production in the serum of 5-FU treated primates (in words) (GCSF; monkey, in vivo): induces IL-6 and GCSF production; CSF production, CFU/100,000 Bone Marrow Cells (CSF; 0.1 mg/kg): 95 ± 16 CFU/100,000 Bone Marrow Cells; CSF production, CFU/100,000 Bone Marrow Cells (CSF; 1.0 mg/kg): 101 ± 8 CFU/100,000 Bone Marrow Cells
